Assay results published in patent US12115209B2, “ROMO1-derived antimicrobial peptides including lysine substitution and variants thereof” (KOREA UNIVERSITY RESEARCH AND BUSINESS FOUNDATION, priority 2019, dated 2024).
No end group written: not given here.

Columns and labels:
[1] = test system: Methicillin-resistant Staphylococcus aureus (MRSA, ATCC 33591); assay: Minimum bactericidal concentration (MBC) assay; format: cell-based; conditions: Tables 11-21, no unit printed
How it was run: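 Peptide at 0 to 300 μg/ml reacted 1 h at 37 °C with 1×10^5 CFU/ml bacteria in SP buffer (10 mM sodium phosphate, 1% TSB), bacteria pre-grown in 3% TSB. Aliquots then spread on TS agar and checked for colonies after 18 h at 37 °C.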

[2] = test system: Staphylococcus aureus, Pseudomonas aeruginosa, methicillin-resistant Staphylococcus aureus and multidrug-resistant Pseudomonas aeruginosa; assay: Bacteria remaining in the blood of infected mice after intravenous injection of the drug; format: in vivo, mice (C57BL/6); conditions: 10 mg/kg intravenous 1 hour after infection; blood 40 minutes after injection; compared with LL-37, magainin 2, daptomycin
Protocol: Specifically, Staphylococcus aureus, Pseudomonas aeruginosa, methicillin-resistant Staphylococcus aureus and multidrug-resistant Pseudomonas aeruginosa was cultured in 3% (w/v) TSB liquid medium at 37° C. and 200 rpm for 4 hours, and then further cultured under the same conditions for 3 hours to a concentration of 5×10^9 CFU/ml. Strain solutions were prepared by diluting each of the further cultured strains with PBS solution to a final concentration of 1×10^5 CFU/μl.
Next, 100 μl of each strain solution was injected intravenously (IV) into the tail vein of each of 10-week-old male mice (C57BL/6). After one hour, KU-5878 was intravenously injected at a concentration of 10 mg/kg. As a control, PBS was intravenously injected at a concentration of 10 mg/kg, and as a positive control, LL-37, magainin 2, or daptomycin was intravenously injected at a concentration of 10 mg/kg.
40 minutes after the intravenous injection of each drug, about 1 cm from the tail end of each mouse was cut using surgical scissors, and 10 μl of the blood at the end of the cut was collected and diluted in PBS. The diluted blood sample was plated on a previously prepared TSB agar plate and incubated in an incubator at 37° C. for 18 hours, and the formed colonies were counted for comparison.

[3] = Toxicity in vivo (survival and weight after intravenous injection); parameters: species or system mouse (C57BL/6); conditions: 100 mg/kg intravenous
Protocol: At this time, the maximum volume of the injection dose was 150 μl.

mouse red blood cells = format: cell-based
Protocol: Red blood cells were diluted with PBS, centrifuged 3 times at 900 g for 10 minutes, and washed. 100 μl of the diluted red blood cell solution (10% v/v PBS) was dispensed into each well of a 96-well microplate, and KU-5878, KU-5878-K4, KU-5878-K4-D, melittin, magainin 2 or daptomycin was added to each well which was then filled with PBS to 200 μl, followed by reaction by incubation at 37° C. for 1 hour. Then, the supernatant of the reaction solution was separated, and the absorbance at a wavelength of 550 nm was measured using a spectrophotometer. As control, PBS and 0.1% Triton X-100 (Triton X-100) solution were used.
Based on the results of measurement of the absorbance, the degree of red blood cell destruction was calculated according to Equation 1 below, and the results of the calculation are shown in FIG. 6. % The intact RBC=100(%)−[(absorbance of peptide-treated red blood cell solution−absorbance of PBS-treated red blood cell solution)/(absorbance of Triton X-100-treated red blood cell solution−absorbance of PBS-treated red blood cell solution)×100(%)] [Equation 1]

[4] = test system: Staphylococcus aureus, Pseudomonas aeruginosa, Klebsiella pneumoniae and Acinetobacter baumannii; assay: Survival rate of mice injected with gram-positive or gram-negative bacteria; format: in vivo, mice (C57BL/6); conditions: mice injected with gram-positive or gram-negative bacteria (FIG. 3)
From the text: Following Example 2-2, in order to evaluate the antibacterial activity of the KU-5878 peptide in vivo, Staphylococcus aureus as gram-positive bacteria, Pseudomonas aeruginosa, Klebsiella pneumoniae and Acinetobacter baumannii as gram-negative bacteria, and multidrug-resistant Pseudomonas aeruginosa, methicillin-resistant Staphylococcus aureus, multidrug-resistant Klebsiella pneumoniae and multidrug-resistant Acinetobacter baumannii as multidrug-resistant bacteria were selected, and the following experiment was performed.
The experimental method is as described in Example 2-2 above. For a positive group, each type of the bacteria was injected into mice, and after 24 hours, 30 mg/kg of imipenem, a carbapenem-based antibiotic, was injected intraperitoneally (IP), and then the same amount of imipenem was administered intraperitoneally a total of 4 times at 12-hour intervals. The survival rates of each control group and the experimental group were measured at 24-hour intervals.

[5] = test system: Human vascular endothelial cells (HUVECs); assay: Toxicity to human vascular endothelial cells (MTT); format: cell-based; conditions: 0 μg/ml to 300 μg/ml
Protocol: PBS was used as a control.
The HUMEC medium was replaced with fresh medium, and KU-5878, melittin or magainin 2 were dispensed at various concentrations (0 μg/ml to 300 μg/ml). Then, each well was treated with 100 μl of MTT reagent and incubated at 37° C. for 2 hours. Then, the medium and the peptide were carefully removed so as not to separate the cells, and 100 μl of DMSO (dimethyl sulfoxide) was added to each well, and the absorbance at a wavelength of 570 nm was measured using a spectrophotometer. Relative cell viability was calculated as a percentage of the viability of untreated control cells.

In the case of KTMMQSGGTFGTFMAIGMGIR [KU-5878], the MBC MRSA [1] is reported as 110 µg/mL, the MBC MRSA ([1]; listed as 5878) is reported as 100 µg/mL and the “number of bacteria remaining in the blood vessels of the mice” value [2] is reported as “most greatly decreased”. The “effect on the weight of the mice” value ([3]; 24-hour intervals for 12 days) was “no effect on the weight”, the “survival of mice after injection” value ([3]; observed 12 days) was “all survived” and the “hemolysis of red blood cells” value (mouse red blood cells) was “little hemolysis even at a high concentration”. The survival rate [4] was 60% and the “toxicity to the HUVECs (relative cell viability, MTT)” value [5] was “very low toxicity”.
